Several values for one entry are separate records, joined by “and”; a condition that tells them apart may be missing. Identical values can stand only once.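 Grown in 96-well plates, cells were treated for 48 hours with each compound at five concentrations. Insufficient inhibition: endpoint recorded as highest concentration tested. The concentration for 50% growth inhibition is given as GI50. Definition used: TGI = concentration required for complete inhibition of growth.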
Experiments:
Assay in all cases: inhibition of tumour cell growth, NCI panel, 48 h
[1] = system: HCC-2998 colon
[2] = system: SNB-19 CNS
[3] = system: MALME-3M melanoma
[4] = system: NCI-H522 lung
[5] = system: SF-268 CNS
[6] = system: A498 renal
[7] = system: EKVX NSCLC
[8] = system: TK-10 renal
[9] = system: HT29 colon
[10] = system: KM12 colon

Row | SMILES | GI50 [1] | TGI [1] | GI50 [2] | TGI [2] | GI50 [3] | TGI [3] | GI50 [4] | TGI [4] | GI50 [5] | TGI [5] | GI50 [6] | TGI [6] | GI50 [7] | TGI [7] | GI50 [8] [µM] | TGI [8] | GI50 [9] | TGI [9] | GI50 [10] | TGI [10]
1 | COc1ccc(-n2nc(C)c3c(Nc4ccc(NC(=O)Nc5cccc(C(F)(F)F)c5)cc4)ncnc32)cc1 | 2240 nM | 5.31 µM | 1.95 µM | 4.65 µM | 1590 nM | 3.31 µM | 1600 nM | 3.8 µM | 2.14 µM | 5.51 µM | 1.99 µM | 4.45 µM | 1.93 µM | 4.34 µM | 2.39 | 6.6 µM | 1.77 µM | 3.96 µM | 1.63 µM | 3.76 µM
2 | Cc1cccc(CNc2c3ccccc3nc3ccccc23)c1 | 1550 nM | 3.4 µM | 3.07 µM | 13 µM | 1660 nM | 3.17 µM | 1530 nM | 4.67 µM | 3.06 µM | 11.8 µM | 1.32 µM | 2.7 µM | 2.31 µM | 8.97 µM | 2.83 | 12.2 µM | 1.7 µM | 10.1 µM | 3.16 µM | 12.1 µM
3 | COc1ccc(C2=Nn3c(nnc3-c3ccc(F)c(Cl)c3)SC2)cc1 | > 100000 nM | > 100 µM | > 100 µM | > 100 µM | > 100000 nM | > 100 µM | > 100000 nM | > 100 µM | > 100 µM | > 100 µM | > 100 µM | > 100 µM | > 100 µM | > 100 µM | > 100 | > 100 µM | > 100 µM | > 100 µM | > 100 µM | > 100 µM
4 | COC(=O)NC1(NC(=O)OC)NC(=O)c2ccccc2N1 |  | > 100 µM |  | > 100 µM |  | > 100 µM |  | > 100 µM |  | > 100 µM |  | > 100 µM |  | > 100 µM |  | > 100 µM |  | > 100 µM |  | > 100 µM
5 | O=[N+]([O-])c1ccc(Sc2cccc[n+]2[O-])c2nonc12 | 4580 nM | 16.9 µM | 17.1 µM | > 100 µM | 2090 nM | 5.34 µM | 1780 nM | 3.79 µM | 5.27 µM | 21.1 µM | 4.88 µM | 91.9 µM | 9.59 µM | 31.7 µM | 8.41 | 20.8 µM | 3.4 µM | 29.4 µM | 4.02 µM | 14.4 µM
6 | CCC/C=C/C=C/C(=O)OC1/C(=C/C(=O)OC)CC2CC(C(C)O)OC(=O)CC(O)CC3CC(OC(C)=O)C(C)(C)C(O)(CC4C/C(=C/C(=O)OC)CC(/C=C/C(C)(C)C1(O)O2)O4)O3 (centres undefined) | > 10900 nM and 4720 nM and > 12500 nM | > 10.9 µM and 9 µM and > 12.5 µM | > 11 µM | > 12.5 µM | 5710 nM and > 12500 nM | 11 µM and > 12.5 µM | > 11000 nM | > 12.5 µM | 6.18 µM and > 12.5 µM | 9.13 µM and 11 µM and > 12.5 µM | 7.67 µM and 9.27 µM | 10.9 µM and 11 µM and > 12.5 µM | > 10.9 µM and 5.21 µM and > 12.5 µM | > 10.9 µM and 9.53 µM and > 12.5 µM | > 11 | > 12.5 µM | > 10.9 µM and 5.12 µM and > 12.5 µM | > 10.9 µM and 10.8 µM and > 12.5 µM | > 10.9 µM and 6.75 µM and > 12.5 µM | > 10.9 µM and 9.07 µM and > 12.5 µM
7 | O=C(O)/C=C/c1c2ccc(=O)c(O)c-2oc2c(O)c(O)ccc12 |  | > 100 µM |  | > 100 µM |  | > 100 µM |  | > 100 µM |  | > 100 µM |  | > 100 µM |  | > 100 µM |  | > 100 µM |  | > 100 µM |  | > 100 µM
8 | COc1ccc(C2=C(c3ccc(OC)cc3)C(=O)OC2)cc1 | 264 nM | 14.5 µM | 2.34 µM | > 100 µM | 3910 nM | 35.4 µM | 342 nM | 1.85 µM | 1.52 µM | 27.6 µM | 0.528 µM | 3.66 µM | 16.1 µM | > 100 µM | 1.1 | 8.01 µM | 0.437 µM | > 100 µM | 0.555 µM | > 37.7 µM
9 | O=C(c1ccc(Cl)cc1Cl)N1CCN(C(=O)c2ccc(Cl)cc2Cl)C1=S | 22000 nM | 44.4 µM | 24.9 µM | 65.2 µM | 25400 nM | 62.7 µM | 18200 nM | 38.1 µM | 24.5 µM | 56.1 µM | 16.1 µM | 36.5 µM | 20.5 µM | 48.4 µM | 36.3 | > 100 µM | 20.4 µM | 48.9 µM | 15.3 µM | 29.4 µM
10 | Nc1[nH]nc(Nc2ccccc2)c1-c1nc2ccccc2s1 | 1880 nM | 4.21 µM | 2.08 µM | 4.56 µM | 2790 nM | 8.58 µM | 1580 nM | 3.63 µM | 2.36 µM | 8.83 µM | 1.69 µM | 4.01 µM | 1.26 µM | 4.28 µM | 3.02 | 9.1 µM | 3.39 µM | 11.5 µM | 1.61 µM | 3.6 µM
11 | COc1cc(C[C@H]2COC(=O)[C@]2(O)Cc2ccc(OCc3ccccc3)c(OC)c2)ccc1OCc1ccccc1 | 26500 nM | > 100 µM | > 100 µM | > 100 µM | 8330 nM | 87.3 µM | 65200 nM | > 100 µM | 73.7 µM | > 100 µM | 27.5 µM | 99.1 µM | 24.2 µM | > 100 µM | 26.7 | > 100 µM | 4.16 µM | > 100 µM | 7.3 µM | > 100 µM
12 | COc1cc(/C=C/C(=O)c2c(C)n([O-])c3ccccc3[n+]2=O)cc(OC)c1OC | 8770 nM | 22.3 µM | 10.5 µM | 23.3 µM | 11400 nM | 26.7 µM | 8730 nM | 24 µM | 5.65 µM | 25.7 µM | 3.97 µM | 17.8 µM | 2.43 µM | 6.86 µM | 11.3 | 24 µM | 10.7 µM | 22.9 µM | 10.7 µM | 24.7 µM
13 | CCCCC[C@@H]1CCCC2NC(CCCCCO[Si](c3ccccc3)(c3ccccc3)C(C)(C)C)CCC21 (some centres undefined) |  | 25.1 µM |  | 32.7 µM |  | 36.9 µM |  | 31.6 µM |  | 38.2 µM |  | 31.9 µM |  | 34.3 µM |  | 34.8 µM |  | 16.1 µM |  | 25.4 µM
14 | CCN1C(=O)N(CC)C2C1NN=c1s/c(=C3\C(=O)Nc4ccccc43)c(=O)n12 (centres undefined) | 1470 nM | 31.7 µM | 0.633 µM | 32.3 µM | 557 nM | 38.4 µM | 373 nM | > 43.6 µM | 10.6 µM | 45.1 µM | 0.193 µM | 0.728 µM | 2.12 µM | > 100 µM | 9.37 | 32.6 µM | 0.374 µM | > 100 µM | 0.452 µM | > 100 µM
15 | C[C@H]1C[C@@H](n2c(Nc3ccc(OC(F)(F)F)cc3)nc3cc(CCC(=O)O)ccc32)CC(C)(C)C1 | 6680 nM | 20.8 µM | 12.1 µM | 31.2 µM | 16200 nM | 37.3 µM | 14000 nM | 33.2 µM | 12.1 µM | 27.7 µM | 11.1 µM | 23.2 µM | 10.5 µM | 32.2 µM | 20.6 | 46.9 µM | 14.6 µM | 30.9 µM | 10.5 µM | 24 µM
16 | O=C1c2ccccc2C(=O)c2c1ccc1conc21 |  | 29.8 µM |  | 11.5 µM |  | 4.75 µM |  | 3.44 µM |  | 6.8 µM |  | 24.3 µM |  | 3.87 µM |  | 15.3 µM |  | 13 µM |  | 7.45 µM
17 | CC(=O)CC[N+](C)(C)C |  | 68.1 µM |  | > 36.9 µM |  | 24.2 µM |  | 1.96 µM |  | 76.8 µM |  | 91.9 µM |  | 28.9 µM |  | 38.9 µM |  | 53.5 µM |  | > 81.5 µM
18 | COc1ccc2nc3cc(Cl)ccc3c(Nc3ccccc3-c3ccccc3Nc3c4ccc(Cl)cc4nc4ccc(OC)cc34)c2c1 |  | > 67.5 µM |  | > 100 µM |  | 68.6 µM |  | 32 µM |  | > 72.7 µM |  | 97.5 µM |  | > 100 µM |  | > 100 µM |  | 55.7 µM |  | > 100 µM
19 | CCc1nc(N)nc(N)c1C#CC(C)c1ccc(-c2ccncc2)cc1Cl (centres undefined) | 86.9 nM and 134 nM | 4.07 µM and 13.1 µM | 0.0394 µM and 0.0796 µM | 6.69 µM and 15.2 µM | 37.8 nM and 307 nM | 1.93 µM and 13.1 µM | 47.7 nM and 34.6 nM | 2.97 µM and 4.06 µM | 0.0287 µM and 0.0682 µM | 3.2 µM and 16.8 µM | 0.109 µM and 0.223 µM | 1.64 µM and 5.81 µM | 0.0259 µM and 0.0772 µM | 2.5 µM and 12.6 µM |  | 4.46 µM and 6.39 µM | 0.00589 µM and 0.012 µM | 5.82 µM and 2.45 µM | 0.0271 µM and 0.0678 µM | 5.73 µM and 14.5 µM
20 | O=C1/C(=C/c2ccc(F)cc2)COc2ccc(O)c(O)c21 | 1800 nM | 3.57 µM | 3.36 µM | 15.8 µM | 1680 nM | 4.34 µM | 304 nM | 1.24 µM | 2.51 µM | 9.27 µM | 12.5 µM | 28.3 µM | 3.29 µM | 18.4 µM | 4.74 | > 100 µM | 3.37 µM | > 100 µM | 1.99 µM | 6.82 µM

— PubChem BioAssay (NCI)
